Data reported in US10544143B2, “4-azaindole compounds” (BRISTOL-MYERS SQUIBB COMPANY, priority 2017, dated 2020).
pIC50: −log10 of the molar value. Where two headings read alike, the source gives them in different places. Each block holds one compound with its values, some of them ahead of it.

Assays:
[1] = molecular target: human TLR7 (Homo sapiens (Human), UniProt Q9NYK1); experiment: TLR7 inhibition reporter assay (HEK-Blue SEAP); type: cell-based; details: HEK-Blue cells overexpressing human TLR7, gardiquimod 7.5 μM stimulation, SEAP reporter
[2] = molecular target: human TLR8 (Homo sapiens (Human), UniProt Q9NR97); experiment: TLR8 inhibition reporter assay (HEK-Blue SEAP); details: read-out: TLR8 IC50;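 also: SEAP driven by IFN-β minimal promoter carrying NF-κB and AP-1 sites, compounds dosed 0.05 nM to 50 µM for 22 h, inhibition scaled between agonist-plus-DMSO and reference-inhibitor wells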
[3] = molecular target: TLR7 (Mus musculus (Mouse), UniProt P58681); experiment: In vivo mouse TLR7 PD model (gardiquimod challenge, plasma IL-6 and IFN-alpha); details: C57BL/6 mice, plasma 90 min after gardiquimod i.p., vs vehicle
Description: In Vivo Mouse TLR7 PD Model:
Adult male C57BL/6 mice were used for the experiments. Mice (7 to 10 per group) were randomized into different treatment groups based on body weight. Mice from the respective treatment groups were administered orally with vehicle or test compound. Thirty min after the oral administration of vehicle or test compound, mice were challenged with intraperitoneal injection of gardiquimod for TLR7 PD model. Ninety minutes after gardiquimod injection, mice were bled under isoflurane anaesthesia and plasma IL-6 and IFN-alpha levels were estimated by using commercially available ELISA kit (BD Biosciences, PBL Life Sciences). At the end of experiment, mean cytokine data was plotted and one way ANOVA with Dunnett's test was performed to calculate the significance of test compound treated group vs. vehicle control group. Percent inhibition of cytokine induction was calculated for test compound treated group vs vehicle control group.

[4] = molecular target: human TLR9 (Homo sapiens (Human), UniProt Q9NR96); experiment: TLR9 inhibition reporter assay (HEK-Blue SEAP); details: read-out: TLR9 IC50;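 also: SEAP driven by an IFN-β minimal promoter with NF-κB and AP-1 sites, read after 22 h, compounds dosed 0.05 nM–50 µM, inhibition scaled between agonist plus DMSO and reference-inhibitor wells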
[5] = tested on: MRL/lpr mice; experiment: MRL/lpr model of SLE; type: in vivo, mouse; details: vs vehicle; for IL-10, percent reduction in disease severity / IL-12p40, percent reduction in disease severity: plasma
Description: Male MRL/lpr mice of 12-14 weeks age were screened and randomized based on the titres of anti-dsDNA antibodies and urinary NGAL (Neutrophil Gelatinase Associated Lipocalin). Mice were treated orally, once daily for 8 weeks with vehicle or test compound. The effect of test compound on disease severity was assessed by measuring end points including proteinuria, urinary-NGAL, urinary TIMP1, blood urea nitrogen (BUN), anti-dsDNA Ab, anti-smRNP Ab titer, and plasma levels of IL10 and IL12p40. At the end of experiment, all mice were euthanized by CO2 asphyxiation and kidney samples were subjected for histology. To calculate the significance of test compound treated group vs. vehicle control group, one way ANOVA with Dunnett's test was performed. Percent reduction in disease severity was calculated for each parameter, for test compound treated group vs vehicle control group.

[6] = HEK-Blue cells overexpressing human TLR8, R848 15.9 μM stimulation, SEAP reporter
[7] = HEK-Blue cells overexpressing human TLR9, ODN2006 5 nM stimulation, SEAP reporter
[8] = 0.1 mg/kg oral once daily 8 weeks
[9] = 0.3 mg/kg oral once daily 8 weeks
[10] = 1 mg/kg oral once daily 8 weeks
[11] = 3 mg/kg oral once daily 8 weeks
[12] = 10 mg/kg oral once daily 8 weeks

Chain of human TLR8 (Q9NR97 27-1041): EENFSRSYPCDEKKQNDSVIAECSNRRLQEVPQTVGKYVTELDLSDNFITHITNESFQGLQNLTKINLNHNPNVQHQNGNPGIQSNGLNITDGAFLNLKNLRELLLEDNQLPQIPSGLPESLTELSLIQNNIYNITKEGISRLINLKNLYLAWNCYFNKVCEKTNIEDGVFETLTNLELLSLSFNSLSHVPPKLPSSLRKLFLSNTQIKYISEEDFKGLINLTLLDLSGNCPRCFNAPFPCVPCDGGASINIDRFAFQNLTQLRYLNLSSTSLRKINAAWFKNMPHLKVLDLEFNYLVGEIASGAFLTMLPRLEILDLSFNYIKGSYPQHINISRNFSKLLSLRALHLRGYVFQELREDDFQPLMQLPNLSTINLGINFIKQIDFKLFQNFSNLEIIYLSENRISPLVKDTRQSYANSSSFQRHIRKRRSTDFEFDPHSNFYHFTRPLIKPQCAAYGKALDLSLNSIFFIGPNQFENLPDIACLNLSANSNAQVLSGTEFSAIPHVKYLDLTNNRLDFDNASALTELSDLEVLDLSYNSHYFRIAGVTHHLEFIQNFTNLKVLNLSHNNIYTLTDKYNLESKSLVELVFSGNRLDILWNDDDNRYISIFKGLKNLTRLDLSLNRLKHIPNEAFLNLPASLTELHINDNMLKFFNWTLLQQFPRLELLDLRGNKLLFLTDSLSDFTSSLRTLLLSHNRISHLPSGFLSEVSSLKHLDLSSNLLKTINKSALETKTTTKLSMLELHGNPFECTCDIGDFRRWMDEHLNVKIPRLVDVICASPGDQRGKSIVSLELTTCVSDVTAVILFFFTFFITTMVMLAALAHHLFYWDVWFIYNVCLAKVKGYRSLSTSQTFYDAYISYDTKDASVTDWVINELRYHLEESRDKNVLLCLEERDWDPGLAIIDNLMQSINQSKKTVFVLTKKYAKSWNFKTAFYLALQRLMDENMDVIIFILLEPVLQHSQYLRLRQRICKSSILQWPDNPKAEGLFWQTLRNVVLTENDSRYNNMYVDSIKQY
Chain of human TLR9 (Q9NR96 26-1032): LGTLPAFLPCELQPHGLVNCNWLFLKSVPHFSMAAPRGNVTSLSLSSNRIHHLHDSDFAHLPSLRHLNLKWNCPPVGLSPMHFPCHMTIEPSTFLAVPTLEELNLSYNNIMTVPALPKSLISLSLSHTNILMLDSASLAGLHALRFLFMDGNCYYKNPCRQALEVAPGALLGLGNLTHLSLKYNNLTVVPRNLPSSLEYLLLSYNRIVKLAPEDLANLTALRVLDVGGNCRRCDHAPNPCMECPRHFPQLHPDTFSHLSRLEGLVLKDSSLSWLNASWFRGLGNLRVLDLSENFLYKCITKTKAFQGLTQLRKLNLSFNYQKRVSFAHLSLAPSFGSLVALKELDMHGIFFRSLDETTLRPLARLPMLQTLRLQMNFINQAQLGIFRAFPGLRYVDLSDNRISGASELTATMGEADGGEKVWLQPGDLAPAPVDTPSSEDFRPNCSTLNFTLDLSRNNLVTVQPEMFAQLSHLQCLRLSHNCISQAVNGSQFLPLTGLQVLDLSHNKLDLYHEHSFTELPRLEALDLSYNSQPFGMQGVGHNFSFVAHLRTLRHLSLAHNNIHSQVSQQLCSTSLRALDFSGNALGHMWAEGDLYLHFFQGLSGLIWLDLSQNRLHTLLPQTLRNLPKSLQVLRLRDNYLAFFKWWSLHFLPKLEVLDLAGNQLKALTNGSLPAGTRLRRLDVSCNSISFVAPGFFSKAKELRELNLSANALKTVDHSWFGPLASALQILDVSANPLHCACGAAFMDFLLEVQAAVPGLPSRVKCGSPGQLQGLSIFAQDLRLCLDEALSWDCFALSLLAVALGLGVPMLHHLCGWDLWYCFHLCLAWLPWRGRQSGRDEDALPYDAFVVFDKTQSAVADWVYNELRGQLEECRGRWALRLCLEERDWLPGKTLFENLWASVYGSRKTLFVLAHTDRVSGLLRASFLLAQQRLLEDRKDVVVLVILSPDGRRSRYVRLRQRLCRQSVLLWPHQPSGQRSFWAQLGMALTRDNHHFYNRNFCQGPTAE
Chain of TLR7 (P58681 27-1050): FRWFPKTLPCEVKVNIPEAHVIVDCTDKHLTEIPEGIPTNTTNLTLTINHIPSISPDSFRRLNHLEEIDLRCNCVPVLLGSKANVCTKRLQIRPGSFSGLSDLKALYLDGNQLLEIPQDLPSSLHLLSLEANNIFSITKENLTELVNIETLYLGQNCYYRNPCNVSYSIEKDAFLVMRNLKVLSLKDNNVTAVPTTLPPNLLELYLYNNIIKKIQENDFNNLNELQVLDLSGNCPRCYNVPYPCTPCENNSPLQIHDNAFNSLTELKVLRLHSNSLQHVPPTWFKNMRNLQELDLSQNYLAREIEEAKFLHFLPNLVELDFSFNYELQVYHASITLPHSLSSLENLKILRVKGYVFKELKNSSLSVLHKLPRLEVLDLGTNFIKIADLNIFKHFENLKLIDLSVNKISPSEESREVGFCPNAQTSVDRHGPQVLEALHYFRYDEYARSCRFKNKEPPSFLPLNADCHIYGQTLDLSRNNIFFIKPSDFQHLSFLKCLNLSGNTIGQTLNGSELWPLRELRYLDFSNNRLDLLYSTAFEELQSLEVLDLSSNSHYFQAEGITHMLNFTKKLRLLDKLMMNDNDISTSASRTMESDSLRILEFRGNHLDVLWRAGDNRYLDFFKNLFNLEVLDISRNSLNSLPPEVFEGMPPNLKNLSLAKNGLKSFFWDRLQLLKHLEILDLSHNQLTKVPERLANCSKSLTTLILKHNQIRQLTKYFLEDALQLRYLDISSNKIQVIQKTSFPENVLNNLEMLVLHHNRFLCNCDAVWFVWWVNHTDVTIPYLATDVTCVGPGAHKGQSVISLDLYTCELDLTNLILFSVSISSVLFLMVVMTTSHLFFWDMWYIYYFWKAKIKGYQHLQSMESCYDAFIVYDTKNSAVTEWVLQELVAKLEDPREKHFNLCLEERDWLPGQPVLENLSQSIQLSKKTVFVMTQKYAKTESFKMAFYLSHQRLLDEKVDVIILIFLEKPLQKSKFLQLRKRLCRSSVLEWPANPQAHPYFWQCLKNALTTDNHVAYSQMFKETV
Chain of human TLR7 (Q9NYK1 27-1049): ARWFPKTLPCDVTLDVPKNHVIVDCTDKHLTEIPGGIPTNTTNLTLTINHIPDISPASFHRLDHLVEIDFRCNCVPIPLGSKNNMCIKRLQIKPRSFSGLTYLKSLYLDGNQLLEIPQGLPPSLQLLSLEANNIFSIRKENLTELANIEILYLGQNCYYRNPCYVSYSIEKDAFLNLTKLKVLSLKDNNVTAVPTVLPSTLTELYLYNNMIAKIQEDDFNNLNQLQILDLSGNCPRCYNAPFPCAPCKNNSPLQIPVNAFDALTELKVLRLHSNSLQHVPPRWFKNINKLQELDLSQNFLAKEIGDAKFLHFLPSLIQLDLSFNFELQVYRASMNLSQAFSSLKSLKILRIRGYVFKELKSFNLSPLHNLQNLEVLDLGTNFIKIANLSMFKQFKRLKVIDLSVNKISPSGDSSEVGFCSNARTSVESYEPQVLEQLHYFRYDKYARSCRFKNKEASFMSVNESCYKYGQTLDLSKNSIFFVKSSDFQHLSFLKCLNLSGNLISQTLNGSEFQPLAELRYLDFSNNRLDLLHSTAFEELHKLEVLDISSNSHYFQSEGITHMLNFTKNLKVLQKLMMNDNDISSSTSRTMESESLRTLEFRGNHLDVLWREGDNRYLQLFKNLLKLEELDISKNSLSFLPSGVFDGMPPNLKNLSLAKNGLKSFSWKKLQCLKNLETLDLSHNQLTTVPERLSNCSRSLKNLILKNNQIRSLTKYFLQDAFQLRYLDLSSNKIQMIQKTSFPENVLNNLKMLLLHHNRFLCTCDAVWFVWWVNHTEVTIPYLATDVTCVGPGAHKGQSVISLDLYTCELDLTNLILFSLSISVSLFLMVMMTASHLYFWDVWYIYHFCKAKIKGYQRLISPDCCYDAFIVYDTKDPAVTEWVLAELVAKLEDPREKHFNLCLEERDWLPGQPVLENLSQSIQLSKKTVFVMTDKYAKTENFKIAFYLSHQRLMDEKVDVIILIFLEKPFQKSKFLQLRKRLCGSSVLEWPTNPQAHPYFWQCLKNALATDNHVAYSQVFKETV

pIC50 [1]: 9.03
pIC50 [2, 6]: 8.96
% inhibition of IFN-alpha ([3]; 0.005 mg/kg oral): 29%
% inhibition of IL6 ([3]; 0.005 mg/kg oral): 0%
% inhibition of IFN-alpha ([3]; 0.01 mg/kg oral): 37%
% inhibition of IL6 ([3]; 0.01 mg/kg oral): 24%
% inhibition of IFN-alpha ([3]; 0.05 mg/kg oral): 94%
% inhibition of IL6 ([3]; 0.05 mg/kg oral): 75%
% inhibition of IFN-alpha ([3]; 0.25 mg/kg oral): 99%
% inhibition of IL6 ([3]; 0.25 mg/kg oral): 90%
% inhibition of IFN-alpha ([3]; 0.5 mg/kg oral): 100%
% inhibition of IL6 ([3]; 0.5 mg/kg oral): 91%
pIC50 [4, 7]: 5.07
SMILES: Cc1c(-c2[nH]c3ccc(N4CCN(C(=O)CN(C)C)CC4)nc3c2C(C)C)cn2ncnc2c1C [Example 3, 1-(4-(2-(7,8-dimethyl-[1,2,4]triazolo[1,5-a]pyridin-6-yl)-3-isopropyl-1H-pyrrolo[3,2-b]pyridin-5-yl)piperazin-1-yl)-2-(dimethylamino)ethan-1-one]

pIC50 [1]: 9.22
pIC50 [2, 6]: 9.15
% inhibition of IFN-alpha ([3]; 0.0015 mg/kg oral): 0%
% inhibition of IL6 ([3]; 0.0015 mg/kg oral): 0%
% inhibition of IFN-alpha ([3]; 0.003 mg/kg oral): 33%
% inhibition of IL6 ([3]; 0.003 mg/kg oral): 23%
% inhibition of IFN-alpha ([3]; 0.015 mg/kg oral): 74%
% inhibition of IL6 ([3]; 0.015 mg/kg oral): 75%
% inhibition of IFN-alpha ([3]; 0.075 mg/kg oral): 93%
% inhibition of IL6 ([3]; 0.075 mg/kg oral): 76%
% inhibition of IFN-alpha ([3]; 0.15 mg/kg oral): 99%
% inhibition of IL6 ([3]; 0.15 mg/kg oral): 95%
pIC50 [4, 7]: 5.97
SMILES: Cc1c(-c2[nH]c3ccc(C4CCC(NCC5(S(C)(=O)=O)CC5)CC4)nc3c2C(C)C)cn2ncnc2c1C (stereo not shown) [Example 4, 4-(2-(7,8-dimethyl-[1,2,4]triazolo[1,5-a]pyridin-6-yl)-3-isopropyl-1H-pyrrolo[3,2-b]pyridin-5-yl)-N-((1-(methylsulfonyl)cyclopropyl)methyl)cyclohexan-1-amine]

pIC50 ([2]; HEK-Blue cells overexpressing human TLR8, SEAP reporter, R848 15.9 μM): 9.41
% inhibition of IFN-alpha ([3]; 0.003 mg/kg oral): 36%
% inhibition of IL6 ([3]; 0.003 mg/kg oral): 25%
% inhibition of IFN-alpha ([3]; 0.006 mg/kg oral): 57%
% inhibition of IL6 ([3]; 0.006 mg/kg oral): 41%
% inhibition of IFN-alpha ([3]; 0.03 mg/kg oral): 67%
% inhibition of IL6 ([3]; 0.03 mg/kg oral): 56%
% inhibition of IFN-alpha ([3]; 0.15 mg/kg oral): 96%
% inhibition of IL6 ([3]; 0.15 mg/kg oral): 78%
% inhibition of IFN-alpha ([3]; 0.3 mg/kg oral): 98%
% inhibition of IL6 ([3]; 0.3 mg/kg oral): 82%
pIC50 ([4]; HEK-Blue cells overexpressing human TLR9, SEAP reporter, ODN2006 5 nM): 5.84
SMILES: Cc1c(-c2[nH]c3ccc(C4CCC(N5CC6(C5)CS(=O)(=O)C6)CC4)nc3c2C(C)C)cn2ncnc2c1C (stereo not shown) [Example 438, 6-((1r,4r)-(4-(2-(7,8-dimethyl-[1,2,4]triazolo[1,5-a]pyridin-6-yl)-3-isopropyl-1H-pyrrolo[3,2-b]pyridin-5-yl)cyclohexyl)-2-thia-6-azaspiro[3.3]heptane 2,2-dioxide]
IL-10, percent reduction in disease severity [5, 8]: 0%
IL-12p40, percent reduction in disease severity [5, 8]: 16%
Anti-SmRNP Ab titer, percent reduction in disease severity [5, 8]: 23%
Anti-dsDNA Ab titer, percent reduction in disease severity [5, 8]: 0%
Proteinuria, percent reduction in disease severity [5, 8]: 31%
Urinary NGAL, percent reduction in disease severity [5, 8]: 34%
Urinary TIMP1, percent reduction in disease severity [5, 8]: 0%
IL-10, percent reduction in disease severity [5, 9]: 18%
IL-12p40, percent reduction in disease severity [5, 9]: 33%
Anti-SmRNP Ab titer, percent reduction in disease severity [5, 9]: 44%
Anti-dsDNA Ab titer, percent reduction in disease severity [5, 9]: 28%
Proteinuria, percent reduction in disease severity [5, 9]: 80%
Urinary NGAL, percent reduction in disease severity [5, 9]: 58%
Urinary TIMP1, percent reduction in disease severity [5, 9]: 42%
IL-10, percent reduction in disease severity [5, 10]: 19%
IL-12p40, percent reduction in disease severity [5, 10]: 26%
Anti-SmRNP Ab titer, percent reduction in disease severity [5, 10]: 49%
Anti-dsDNA Ab titer, percent reduction in disease severity [5, 10]: 39%
Proteinuria, percent reduction in disease severity [5, 10]: 73%
Urinary NGAL, percent reduction in disease severity [5, 10]: 63%
Urinary TIMP1, percent reduction in disease severity [5, 10]: 54%
IL-10, percent reduction in disease severity [5, 11]: 21%
IL-12p40, percent reduction in disease severity [5, 11]: 28%
Anti-SmRNP Ab titer, percent reduction in disease severity [5, 11]: 43%
Anti-dsDNA Ab titer, percent reduction in disease severity [5, 11]: 44%
Proteinuria, percent reduction in disease severity [5, 11]: 82%
Urinary NGAL, percent reduction in disease severity [5, 11]: 67%
Urinary TIMP1, percent reduction in disease severity [5, 11]: 56%
IL-10, percent reduction in disease severity [5, 12]: 22%
IL-12p40, percent reduction in disease severity [5, 12]: 41%
Anti-SmRNP Ab titer, percent reduction in disease severity [5, 12]: 51%
Anti-dsDNA Ab titer, percent reduction in disease severity [5, 12]: 37%
Proteinuria, percent reduction in disease severity [5, 12]: 84%
Urinary NGAL, percent reduction in disease severity [5, 12]: 67%
Urinary TIMP1, percent reduction in disease severity [5, 12]: 79%
